These results are taken from US9000015B2, “Compounds for the treatment of addiction” (Gilead Sciences, Inc., priority 2011, dated 2015).

One may read the IC50 as the concentration that gives 50% inhibition.

The target of one assay is HMAO-A (Homo sapiens (Human), UniProt P21397). As to the kind of experiment: MAO-A assay (luminogenic MAO substrate). Format: biochemical. As to conditions: microsome MAO-A, 160 uM substrate. Here is the method:
(§1) MAO assays included luminogenic MAO substrate, reaction buffers, Luciferin Detection and the reconstitution buffer with eserase. Standard MAO reaction mixtures included microsome contained MAO-A (2 ug) or MAO-B (10 ug), 160 uM substrate for MAO-A or 16 uM substrate for MAO-B, MAO-A buffer (100 mM Hepes buffer, pH 7.5, 5% glycerol) or MAO-B buffer (100 mM Hepes, pH 7.5, 5% glycerol, 10% dimethyl sulfoxide) in a final volume of 30 ul. After 20 minutes of pre-incubation of the enzyme with compounds, the reaction was initiated by adding enzyme substrate and the reaction was allowed to proceed for 60 minutes. Reconstituted Luciferin Detection Reagent (30 ul) was then added is added to simultaneously stop the MAO reaction and convert the methyl ester derivative to luciferin and produce light. The amount of light produced is directly proportional to the activity of MAO. The mixtures were further incubated for 20 minutes and activity of the enzyme was determined using Perkin-Elmer Envision Reader.
(§2) Note: […] refers to the concentration of a compound that inhibits a reaction by 50%. In the case of competitive inhibition, IC50=2Ki when the substrate is present at the Km concentration, as per the relationship: Ki=IC50/[1+(substrate concentration/Km)].

In the next assay the target is recombinant human ALDH2 (Homo sapiens (Human), UniProt P05091). The experiment in a line: ALDH2 assay (NADH formation). Format: biochemical. As to conditions: 60 min pre-incubation, 150 uM formaldehyde, 2.5 mM NAD+; read-out: IC50 HALDH2. Here is the method:
Standard ALDH2 reaction mixtures contained 150 uM formaldehyde, 2.5 mM NAD^+, 10 mM MgCl2 and 10 nM recombinant human ALDH2 in 50 mM Hepes buffer, pH 7.4, 0.01% Tween 20 in a final volume of 50 ul using 384-well plates. After 60 min of pre-incubation of compound with ALDH2 and formaldehyde, the reaction was started by adding NAD+ and the reaction mixture was allowed to proceed for 90 minutes. Activity of the enzyme was determined by monitoring NADH formation using Perkin-Elmer Envision Reader with excitation and emission wavelengths set at 340 and 460 nm, respectively.
as §2

A further assay addresses HMAO-B (Homo sapiens (Human), UniProt P27338). The experiment in a line: MAO-B assay (luminogenic MAO substrate). It is filed as biochemical. As to conditions: microsome MAO-B, 16 uM substrate. Here is the method: as §1, §2
Assay [1] concerns male Sprague Dawley (SD) rats. As to the kind of experiment: Rat cocaine cue reinstatement. It is filed as in vivo. Here is the method: Training of male Sprague Dawley (SD) rats had 3 separate stages. First, during self administration, animals were trained to lever press for cocaine with presentation of concomitant cues associated with drug delivery. Rats that reached criteria for addiction were included in the study. Afterward, during cue extinction, cocaine-cue dependent behavior was extinguished. Lastly, during cocaine cue reinstatement, the effect of compounds was tested on lever presses upon cue presentation (FIG. 2).
Rats were trained to self administer i.v. cocaine (0.35 mg/kg/injection) daily (Monday to Friday) in standard operant chambers with retractable levers (Coulbourn Instruments, PA). During the daily 2 hr session, rats received a 0.05 ml infusion of 0.35 mg/kg cocaine every time the active lever was pressed. A cue light and tone turned on for 2 sec together with activation of a pump that delivered the cocaine solution. Rats were required to maintain an infusion rate of ≧20+ per day for at least 10 days before being moved to extinction training.
During extinction sessions lever presses no longer produced cocaine infusion and cue light/tone presentation was absent. Rats received a maximum of 15 extinction sessions.
On the next day after reaching extinction criteria, rats were treated orally with vehicle (Formulation 2B: 25% PEG400/5% Vit E TPGS/1% SLS/69% water with 0.5% Methocel) or drug (compound of Example 2 or compound of Example 5) before the cue reinstatement session. Cue reinstatement began with a tone and cue light. This 2 hr session was identical to the self-administration session (cue light and tone present upon active lever press) except that no cocaine was delivered. The number of active lever presses was compared to extinction lever responding. This is considered a measure of reinstatement. The next day, rats were returned to extinction sessions for at least 2 or 3 more sessions. Rats then received a second and last reinstatement session with an opposite treatment to the one received on the first reinstatement session (vehicle or drug treatment). […] The light/tone presentation triggers this response and it is interpreted as a measure of reinstatement even though cocaine is not available.

A further assay relates to Male SD rats. The experiment in a line: Rat nicotine self administration, acute treatment. As to conditions: 1 hr before session. Format: in vivo. Here is the method:
Male SD rats were trained to self administer i.v. nicotine (0.03 mg/kg/inj) daily (Monday to Friday) in standard operant chambers with retractable levers (MED Associates, Inc) as previously published (Levin et al., 2003; Levin et al., 2007). During the daily 45 min session, rats received 0.05 ml infusion of 0.03 mg/kg/infusion of nicotine every time the active lever was pressed. A cue light and tone turned on for 0.5 sec together with the activation of a pump that delivered the nicotine solution. Daily sessions were run for at least 10 days before the initiation of drug testing. Solutions of compounds of Example 2 and Example 5 were prepared fresh daily in Formulation 2B: 25% PEG400/5% Vit E TPGS/1% SLS/69% water with 0.5% Methocel) for oral dosing. Compound of Example 2 doses were administered in a counterbalanced design for testing 1 hr before each nicotine session. Every rat received all drug doses and vehicle in a randomly assigned order. The oral drug administrations were made twice per week.
Compound of Example 5 was tested in a study using 4 independent groups. Each group received either oral vehicle or 1 of the 3 doses of compound of Example 5 (5, 10 or 30 mg-eq/kg). […] The 5 mg/kg dose was ineffective.

Sequence of HMAO-B (P27338 whole entry): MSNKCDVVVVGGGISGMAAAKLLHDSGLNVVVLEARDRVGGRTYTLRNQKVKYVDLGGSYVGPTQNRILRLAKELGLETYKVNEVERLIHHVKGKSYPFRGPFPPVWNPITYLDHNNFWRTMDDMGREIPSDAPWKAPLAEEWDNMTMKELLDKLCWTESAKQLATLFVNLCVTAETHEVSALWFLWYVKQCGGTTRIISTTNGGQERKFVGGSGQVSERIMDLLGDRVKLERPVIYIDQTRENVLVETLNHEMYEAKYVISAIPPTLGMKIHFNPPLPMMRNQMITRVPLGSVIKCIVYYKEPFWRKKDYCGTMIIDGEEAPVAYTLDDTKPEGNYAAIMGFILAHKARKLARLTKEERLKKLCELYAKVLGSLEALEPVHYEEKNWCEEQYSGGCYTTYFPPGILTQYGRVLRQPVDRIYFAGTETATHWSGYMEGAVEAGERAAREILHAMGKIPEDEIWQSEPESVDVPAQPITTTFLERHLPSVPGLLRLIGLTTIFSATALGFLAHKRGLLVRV
Sequence of HMAO-A (P21397 whole entry): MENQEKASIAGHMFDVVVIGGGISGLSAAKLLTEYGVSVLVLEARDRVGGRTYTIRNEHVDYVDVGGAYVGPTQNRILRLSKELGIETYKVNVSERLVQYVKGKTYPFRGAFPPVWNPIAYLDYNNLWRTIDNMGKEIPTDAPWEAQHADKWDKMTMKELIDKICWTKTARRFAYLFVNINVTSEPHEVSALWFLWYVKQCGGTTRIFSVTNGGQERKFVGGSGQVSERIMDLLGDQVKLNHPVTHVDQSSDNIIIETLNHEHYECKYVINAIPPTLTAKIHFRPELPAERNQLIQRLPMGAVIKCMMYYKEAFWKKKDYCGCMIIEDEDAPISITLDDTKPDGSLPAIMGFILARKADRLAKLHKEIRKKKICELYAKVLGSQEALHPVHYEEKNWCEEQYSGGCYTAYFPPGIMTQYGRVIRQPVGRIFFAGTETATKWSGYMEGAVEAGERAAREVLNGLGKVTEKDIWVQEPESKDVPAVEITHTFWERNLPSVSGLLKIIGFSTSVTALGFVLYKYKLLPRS
Sequence of recombinant human ALDH2 (P05091 18-517): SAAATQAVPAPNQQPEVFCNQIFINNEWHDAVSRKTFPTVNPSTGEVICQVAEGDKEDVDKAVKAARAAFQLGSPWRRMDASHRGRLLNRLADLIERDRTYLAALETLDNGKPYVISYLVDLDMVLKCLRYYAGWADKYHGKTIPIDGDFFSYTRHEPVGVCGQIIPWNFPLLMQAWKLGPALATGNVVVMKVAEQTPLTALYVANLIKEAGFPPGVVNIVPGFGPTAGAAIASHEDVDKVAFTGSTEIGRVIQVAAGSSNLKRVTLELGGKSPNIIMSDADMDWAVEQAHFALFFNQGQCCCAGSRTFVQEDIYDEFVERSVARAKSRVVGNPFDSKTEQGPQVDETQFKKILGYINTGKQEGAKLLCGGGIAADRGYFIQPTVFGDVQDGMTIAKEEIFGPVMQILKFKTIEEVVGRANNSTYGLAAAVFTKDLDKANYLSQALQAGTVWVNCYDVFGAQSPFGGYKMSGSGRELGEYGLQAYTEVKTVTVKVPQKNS

For `COCCOc1cc(Cl)c(C(=O)NCc2ccc(-c3cc[nH]c(=O)c3)cc2)c(Cl)c1` [Compound 1, 2,6-dichloro-4-(2-methoxyethoxy)-N-(4-(2-oxo-1,2-dihydropyridin-4-yl)benzyl)benzamide], the IC50 at HMAO-A was > 130 µM; on recombinant human ALDH2, 0.063 µM; against HMAO-B it was > 130 µM.
Regarding `O=C(NCc1ccc(-c2cc[nH]c(=O)c2)cc1)c1c(Cl)cccc1Cl` [Compound 2, 2,6-dichloro-N-[4-(2-oxo-1,2-dihydro-pyridin-4-yl)-benzyl]-benzamide], the “reduction of cocaine cue-induced reinstatement (lever presses) compared to vehicle” value in assay [1] (5 mg/kg oral) is 69%; in assay [1] (10 mg/kg oral), 72%; in assay [1] (30 mg/kg oral), 86%. Also, the IC50 on HMAO-A was > 130 µM; at recombinant human ALDH2, 0.102 µM; against HMAO-B, > 130 µM. Moreover, the “effect on number of nicotine infusions compared to vehicle” value in the assay on Male SD rats (1 mg/kg oral) and in the assay with Male SD rats (5 mg/kg oral) was “without effect” in each case. For the same compound, the “inhibition of number of nicotine infusions compared to vehicle” value in the assay on Male SD rats (10 mg/kg oral) is listed as 26%; with Male SD rats (30 mg/kg oral), 28%; with Male SD rats (60 mg/kg oral) it was 31%.
For the compound `O=C(NCc1ccc(-c2cc[nH]c(=O)c2)cc1)c1cccc(F)c1Cl` [Compound 3, 2-chloro-3-fluoro-N-(4-(2-oxo-1,2-dihydropyridin-4-yl)benzyl)benzamide], the IC50 was > 130 µM against HMAO-A, 0.215 µM at recombinant human ALDH2 and > 130 µM against HMAO-B.
Take `Cc1cccc(Cl)c1C(=O)NCc1ccc(-c2cc[nH]c(=O)c2)cc1` [Compound 4, 2-chloro-6-methyl-N-(4-(2-oxo-1,2-dihydropyridin-4-yl)benzyl)benzamide]: the IC50 was > 130 µM at HMAO-A, 0.023 µM at recombinant human ALDH2 and > 130 µM at HMAO-B.
For `Cc1cccc(C)c1C(=O)NCc1ccc(-c2cc[nH]c(=O)c2)cc1` [Compound 5, 2,6-dimethyl-N-(4-(2-oxo-1,2-dihydropyridin-4-yl)benzyl)benzamide], the IC50 is > 130 µM at HMAO-A, 0.166 µM at recombinant human ALDH2 and > 130 µM on HMAO-B.
For the compound `Cc1cc(-c2ccc(CNC(=O)c3c(Cl)cccc3Cl)cc2)cc(=O)[nH]1` [Compound 6, 2,6-dichloro-N-[4-(6-methyl-2-oxo-1,2-dihydro-pyridin-4-yl)-benzyl]-benzamide], the IC50 was > 130 µM at HMAO-A, 1.11 µM at recombinant human ALDH2 and > 130 µM against HMAO-B.
Turning to `O=C(NCc1ccc(-c2cc[nH]c(=O)c2)cc1)c1c(F)ccc(F)c1Cl` [Compound 7, 2-chloro-3,6-difluoro-N-(4-(2-oxo-1,2-dihydropyridin-4-yl)benzyl)benzamide], the IC50 is > 130 µM on HMAO-A, 0.464 µM on recombinant human ALDH2 and > 130 µM on HMAO-B.
With `Cc1cc(CNC(=O)c2c(Cl)cccc2Cl)ccc1-c1cc[nH]c(=O)c1` [Compound 8, 2,6-dichloro-N-(3-methyl-4-(2-oxo-1,2-dihydropyridin-4-yl)benzyl)benzamide], the figures for the IC50 against HMAO-A, at recombinant human ALDH2 and against HMAO-B were > 130 µM, 0.48 µM and > 130 µM, respectively.
For `Cn1ccc(-c2ccc(CNC(=O)c3c(Cl)cccc3Cl)cc2)cc1=O` [Compound 9, 2,6-dichloro-N-(4-(1-methyl-2-oxo-1,2-dihydropyridin-4-yl)benzyl)benzamide], the IC50 was > 130 µM against HMAO-A, 2.09 µM at recombinant human ALDH2 and > 130 µM at HMAO-B.
On to `O=C(NCc1ccc(-c2cc[nH]c(=O)c2)cc1)c1c(F)cccc1F` [Compound 10, 2,6-difluoro-N-(4-(2-oxo-1,2-dihydropyridin-4-yl)benzyl)benzamide], for which the values for the concentration for half-maximal inhibition (IC50) on HMAO-A, on recombinant human ALDH2 and at HMAO-B were > 130 µM, 0.89 µM and > 130 µM, respectively.
For `O=C(NCc1ccc(-c2cc[nH]c(=O)c2)cc1)c1c(F)cccc1Cl` [Compound 11, 2-chloro-6-fluoro-N-(4-(2-oxo-1,2-dihydropyridin-4-yl)benzyl)benzamide], the 50% inhibitory concentration (IC50) at HMAO-A was > 130 µM; at recombinant human ALDH2, 0.379 µM; at HMAO-B, > 130 µM.
`O=C(NCc1ccc(-c2cc[nH]c(=O)c2)cc1F)c1c(Cl)cccc1Cl` [Compound 12, 2,6-dichloro-N-(2-fluoro-4-(2-oxo-1,2-dihydropyridin-4-yl)benzyl)benzamide]: the IC50 on HMAO-A was > 130 µM; at recombinant human ALDH2, 0.304 µM; at HMAO-B, > 130 µM.
Turning to `O=C(NCc1ccc(-c2cc(=O)[nH]cc2F)cc1)c1c(Cl)cccc1Cl` [Compound 13, 2,6-dichloro-N-(4-(5-fluoro-2-oxo-1,2-dihydropyridin-4-yl)benzyl)benzamide], the results for the IC50 at HMAO-A, on recombinant human ALDH2 and against HMAO-B were > 130 µM, 0.025 µM and > 130 µM, respectively.
